Converted amounts (≈) assume the structure as drawn. The source made the active and inactive calls. The rule behind the calls is not given here.
Columns and labels:
[1] = Hemolytic activity in human Red blood cells at 256 ug/ml measured after 1.5 hrs by absorbance based assay relative to control; format: toxicity, cell-based, Erythrocyte; details: red blood cells (erythrocytes), at 256 µg/mL, read-out: Activity
Staphylococcus aureus [2] = test: Antibacterial activity against methicillin resistant Staphylococcus aureus clinical isolate assessed as inhibition of bacterial growth incubated for 24 hrs; format: functional
Escherichia coli [3] = test: Antibacterial activity against Escherichia coli clinical isolate assessed as inhibition of bacterial growth incubated for 24 hrs; format: functional
Streptococcus pneumoniae = test: Antibacterial activity against Streptococcus pneumoniae ATCC 6305 assessed as inhibition of bacterial growth incubated for 24 hrs; format: functional
Streptococcus pyogenes = test: Antibacterial activity against Streptococcus pyogenes ATCC 19615 assessed as inhibition of bacterial growth incubated for 24 hrs; format: functional
Staphylococcus aureus [4] = test: Antibacterial activity against Staphylococcus aureus ATCC 6538 assessed as inhibition of bacterial growth incubated for 24 hrs; format: functional
Staphylococcus aureus [5] = test: Antibacterial activity against Staphylococcus aureus CMCC(B)26003 assessed as inhibition of bacterial growth incubated for 24 hrs; format: functional
Acinetobacter baumannii = test: Antibacterial activity against Acinetobacter baumannii clinical isolate assessed as inhibition of bacterial growth incubated for 24 hrs; format: functional
[6] = test system: Staphylococcus epidermidis; test: Antibacterial activity against Staphylococcus epidermidis ATCC 12228 assessed as inhibition of bacterial growth incubated for 24 hrs; format: functional
Enterococcus faecalis [7] = test: Antibacterial activity against Enterococcus faecalis clinical isolate assessed as inhibition of bacterial growth incubated for 24 hrs; format: functional
Escherichia coli [8] = test: Antibacterial activity against Escherichia coli ATCC 25922 assessed as inhibition of bacterial growth incubated for 24 hrs; format: functional
Erythrocyte = test: Hemolytic activity in human Red blood cells assessed as concentration required for 5% hemolysis measured after 1.5 hrs by absorbance based assay; format: toxicity, cell-based
Staphylococcus aureus [9] = test: Antibacterial activity against methicillin-resistant Staphylococcus aureus ATCC 43300 assessed as inhibition of bacterial growth incubated for 24 hrs; format: functional
Staphylococcus aureus [10] = test: Antibacterial activity against Staphylococcus aureus ATCC 12600 assessed as inhibition of bacterial growth incubated for 24 hrs; format: functional
Enterococcus faecium = test: Antibacterial activity against Enterococcus faecium ATCC 19434 assessed as inhibition of bacterial growth incubated for 24 hrs; format: functional
Staphylococcus aureus [11] = test: Antibacterial activity against Staphylococcus aureus ATCC 25923 assessed as inhibition of bacterial growth incubated for 24 hrs; format: functional
Staphylococcus aureus [12] = test: Antibacterial activity against Staphylococcus aureus clinical isolate assessed as inhibition of bacterial growth incubated for 24 hrs; format: functional
Staphylococcus aureus [13] = test: Antibacterial activity against Staphylococcus aureus ATCC 29213 assessed as inhibition of bacterial growth incubated for 24 hrs; format: functional
Staphylococcus aureus [14] = test: Antibacterial activity against Staphylococcus aureus CMCC(B)26001 assessed as inhibition of bacterial growth incubated for 24 hrs; format: functional
Pseudomonas aeruginosa [15] = test: Antibacterial activity against Pseudomonas aeruginosa ATCC 27853 assessed as inhibition of bacterial growth incubated for 24 hrs; format: functional
Pseudomonas aeruginosa [16] = test: Antibacterial activity against Pseudomonas aeruginosa clinical isolate assessed as inhibition of bacterial growth incubated for 24 hrs; format: functional
Klebsiella pneumoniae = test: Antibacterial activity against Klebsiella pneumoniae clinical isolate assessed as inhibition of bacterial growth incubated for 24 hrs; format: functional
Enterococcus faecalis [17] = test: Antibacterial activity against vancomycin-resistant Enterococcus faecalis clinical isolate p1-2007225053 assessed as inhibition of bacterial growth incubated for 24 hrs; format: functional
Enterococcus faecalis [18] = test: Antibacterial activity against vancomycin-resistant Enterococcus faecalis clinical isolate p1-2007226001 assessed as inhibition of bacterial growth incubated for 24 hrs; format: functional
Staphylococcus aureus [19] = test: Antibiofilm activity in methicillin resistant Staphylococcus aureus assessed as biofilm eradication measured after 24 hrs by crystal violet staining based analysis; format: functional, organism-based; details: dose 1-2 µg/ml
Cell membrane [20] = test: Induction of cell membrane depolarization in Pseudomonas aeruginosa assessed as increase in fluorescence intensity at 1 ug/ml measured for 30 mins by DiSC35 dye based fluorescence analysis; format: cell membranes; details: dose 1.0 µg/ml
Cell membrane [21] = test: Induction of cell membrane damage in Pseudomonas aeruginosa assessed as increase in nucleic acid leakage at 0 to 2 ug/ml incubated for 12 hrs by optical density based microplate reader analysis; format: cell membranes; details: dose 0-2 µg/ml
Cell membrane [22] = test: Induction of cell membrane depolarization in methicillin-resistant Staphylococcus aureus assessed as increase in fluorescence intensity at 1 ug/ml measured for 30 mins by DiSC35 dye based fluorescence analysis; format: cell membranes; details: dose 1.0 µg/ml
Pseudomonas aeruginosa [23] = test: Antibacterial activity against Pseudomonas aeruginosa assessed as reduction in metabolic activity by measuring reduction in fluorescence intensity at 0.5 to 2 times MIC incubated for 6 hrs by alamar blue assay; format: functional, organism-based
Cell membrane [24] = test: Induction of cell membrane damage in methicillin-resistant Staphylococcus aureus assessed as increase in nucleic acid leakage at 0 to 2 ug/ml incubated for 12 hrs by optical density based microplate reader analysis; format: cell membranes; details: dose 0-2 µg/ml
Staphylococcus aureus [25] = test: Resistance development in methicillin resistant Staphylococcus aureus assessed as increase in MIC measured after 20 days; format: functional, organism-based; details: time 20.0 day
Cell membrane [26] = test: Induction of cell membrane permeability in Pseudomonas aeruginosa assessed as increase in fluorescence intensity at 1 to 2 ug/ml incubated for 6 hrs by PI staining based fluorescence analysis; format: cell membranes; details: dose 1-2 µg/ml
Pseudomonas aeruginosa [27] = test: Induction of intracellular ROS generation in Pseudomonas aeruginosa assessed as increase in fluorescence intensity at 2 ug/ml incubated for 6 hrs by DCFH-DA dye based fluorescence analysis; format: functional, organism-based; details: dose 2.0 µg/ml
Staphylococcus aureus [28] = test: Antibacterial activity against methicillin resistant Staphylococcus aureus assessed as reduction in metabolic activity by measuring reduction in fluorescence intensity at 0.5 to 2 times MIC incubated for 6 hrs by alamar blue assay; format: functional, organism-based
Pseudomonas aeruginosa [29] = test: Antibiofilm activity in Pseudomonas aeruginosa assessed as biofilm eradication measured after 24 hrs by crystal violet staining based analysis; format: functional, organism-based; details: dose 1-2 µg/ml
Staphylococcus aureus [30] = test: Antibacterial activity against methicillin resistant Staphylococcus aureus clinical isolate assessed as inhibition of bacterial growth incubated under dark condition and measured upto 5 hrs; format: functional, organism-based
Pseudomonas aeruginosa [31] = test: Induction of intracellular ROS generation in Pseudomonas aeruginosa assessed as increase in fluorescence intensity at 2 ug/ml incubated for 6 hrs in presence of N-acetyl-L-cysteine by DCFH-DA dye based fluorescence analysis; format: functional, organism-based; details: dose 2.0 µg/ml
Cell membrane [32] = test: Induction of cell membrane permeability in methicillin-resistant Staphylococcus aureus assessed as increase in fluorescence intensity at 1 to 2 ug/ml incubated for 6 hrs by PI staining based fluorescence analysis; format: cell membranes; details: dose 1-2 µg/ml
Pseudomonas aeruginosa [33] = test: Resistance development in Pseudomonas aeruginosa assessed as increase in MIC measured after 20 days; format: functional, organism-based; details: time 20.0 day
Staphylococcus aureus [34] = test: Induction of morphological changes in methicillin resistant Staphylococcus aureus at 2 ug/ml incubated for 3 hrs by SEM analysis; format: functional, organism-based; details: dose 2.0 µg/ml
Pseudomonas aeruginosa [35] = test: Induction of morphological changes in Pseudomonas aeruginosa at 2 ug/ml incubated for 3 hrs by SEM analysis; format: functional, organism-based; details: dose 2.0 µg/ml
Cell membrane [36] = test: Induction of cell membrane permeability in Pseudomonas aeruginosa assessed as increase in fluorescence intensity at 1 ug/ml incubated for 6 hrs by PI staining based fluorescence analysis; format: cell membranes; details: dose 1.0 µg/ml
Pseudomonas aeruginosa [37] = test: Resistance development in ciprofloxacin-treated Pseudomonas aeruginosa ATCC 27853 assessed as increase in MIC measured after 15th generation; format: functional, organism-based
Staphylococcus aureus [38] = test: Antibiofilm activity in methicillin resistant Staphylococcus aureus assessed as biofilm eradication at 1 to 2 ug/ml measured after 24 hrs by crystal violet staining based analysis; format: functional, organism-based; details: dose 1-2 µg/ml
Pseudomonas aeruginosa [39] = test: Antibiofilm activity in Pseudomonas aeruginosa assessed as biofilm eradication at 1 to 2 ug/ml measured after 24 hrs by crystal violet staining based analysis; format: functional, organism-based; details: dose 1-2 µg/ml
Pseudomonas aeruginosa [40] = test: Resistance development in ciprofloxacin-treated Pseudomonas aeruginosa assessed as increase in MIC measured after 15th generation; format: functional, organism-based
Pseudomonas aeruginosa [41] = test: Bactericidal activity against Pseudomonas aeruginosa assessed as increase in fluorescence intensity at 2 ug/ml incubated for 6 hrs by PI staining based fluorescence analysis; format: functional, organism-based; details: dose 2.0 µg/ml
Staphylococcus aureus [42] = test: Bactericidal activity against methicillin-resistant Staphylococcus aureus assessed as increase in fluorescence intensity at 2 ug/ml incubated for 6 hrs by PI staining based fluorescence analysis; format: functional, organism-based; details: dose 2.0 µg/ml
Cell membrane [43] = test: Induction of cell membrane permeability in methicillin-resistant Staphylococcus aureus assessed as increase in fluorescence intensity at 1 ug/ml incubated for 6 hrs by PI staining based fluorescence analysis; format: cell membranes; details: dose 1.0 µg/ml
Staphylococcus aureus [44] = test: Resistance development in ciprofloxacin-treated methicillin resistant Staphylococcus aureus assessed as increase in MIC measured after 15th generation; format: functional, organism-based
Staphylococcus aureus [45] = test: Resistance development in ciprofloxacin-treated Staphylococcus aureus ATCC 6538 assessed as increase in MIC measured after 15th generation; format: functional, organism-based

Compound | hemolysis at 1.5 h, 256 ug/ml [1] [%] | MIC (Staphylococcus aureus [2]) [µg/mL] | MIC (Escherichia coli [3]) [µg/mL] | MIC (Streptococcus pneumoniae) [µg/mL] | MIC (Streptococcus pyogenes) [µg/mL] | MIC (Staphylococcus aureus [4]) [µg/mL] | MIC (Staphylococcus aureus [5]) [µg/mL] | MIC (Acinetobacter baumannii) [µg/mL] | MIC [6] [µg/mL] | MIC (Enterococcus faecalis [7]) [µg/mL] | MIC (Escherichia coli [8]) [µg/mL] | HC5 (Erythrocyte) [µg/mL] | MIC (Staphylococcus aureus [9]) [µg/mL] | MIC (Staphylococcus aureus [10]) [µg/mL] | MIC (Enterococcus faecium) [µg/mL] | MIC (Staphylococcus aureus [11]) [µg/mL] | MIC (Staphylococcus aureus [12]) [µg/mL] | MIC (Staphylococcus aureus [13]) [µg/mL] | MIC (Staphylococcus aureus [14]) [µg/mL] | MIC (Pseudomonas aeruginosa [15]) [µg/mL] | other results
CCn1cc(C(=O)O)c(=O)c2cc(F)c(CC#N)cc21 | < 1 | 1 (≈ 3.65 µM) | 4 (≈ 14.6 µM) | 32 (≈ 117 µM) | 1 (≈ 3.65 µM) | 2 (≈ 7.29 µM) | 4 (≈ 14.6 µM) | 0.5 (≈ 1.82 µM) | 256 (≈ 933 µM) | 32 (≈ 117 µM) | 2 (≈ 7.29 µM) | > 10000 | 128 (≈ 467 µM) | 64 (≈ 233 µM) | 256 (≈ 933 µM) | 0.25 (≈ 0.912 µM) | 1 (≈ 3.65 µM) | 4 (≈ 14.6 µM) | 4 (≈ 14.6 µM) | 0.25 (≈ 0.912 µM) | MIC (Pseudomonas aeruginosa [16]): 0.5 µg/mL (≈ 1.82 µM); MIC (Klebsiella pneumoniae): 2 µg/mL (≈ 7.29 µM); MIC (Enterococcus faecalis [17]): 128 µg/mL (≈ 467 µM); MIC (Enterococcus faecalis [18]): 128 µg/mL (≈ 467 µM)
O=C(O)Cc1cc2c(cc1F)c(=O)c(C(=O)O)cn2C1CC1 | < 1 | 0.5 (≈ 1.64 µM) | 1 (≈ 3.28 µM) | 4 (≈ 13.1 µM) | 1 (≈ 3.28 µM) | 0.25 (≈ 0.819 µM) | 0.125 (≈ 0.409 µM) | 0.5 (≈ 1.64 µM) | 2 (≈ 6.55 µM) | 4 (≈ 13.1 µM) | 0.5 (≈ 1.64 µM) | > 10000 | 2 (≈ 6.55 µM) | 1 (≈ 3.28 µM) | 8 (≈ 26.2 µM) | 32 (≈ 105 µM) | 4 (≈ 13.1 µM) | 2 (≈ 6.55 µM) | 0.125 (≈ 0.409 µM) | 2 (≈ 6.55 µM) | Activity (Staphylococcus aureus [19]): Dose-Dependent Effect; Activity (Cell membrane [20]): Active; Activity (Cell membrane [21]): Active; Activity (Cell membrane [22]): Active; Activity (Pseudomonas aeruginosa [23]): Active; Activity (Cell membrane [24]): Active; Activity (Staphylococcus aureus [25]): inactive; Activity (Cell membrane [26]): Active; Activity (Pseudomonas aeruginosa [27]): Active; Activity (Staphylococcus aureus [28]): Active; Activity (Pseudomonas aeruginosa [29]): Dose-Dependent Effect; Activity (Staphylococcus aureus [30]): Dose-Dependent Effect; Activity (Pseudomonas aeruginosa [31]): inactive; Activity (Cell membrane [32]): Active; Activity (Pseudomonas aeruginosa [33]): inactive; MIC (Pseudomonas aeruginosa [16]): 0.5 µg/mL (≈ 1.64 µM); MIC (Klebsiella pneumoniae): 8 µg/mL (≈ 26.2 µM); MIC (Enterococcus faecalis [17]): 2 µg/mL (≈ 6.55 µM); MIC (Enterococcus faecalis [18]): 8 µg/mL (≈ 26.2 µM)
O=C(O)c1cn(C2CC2)c2cc(N3CCNCC3)c(F)cc2c1=O [CIPROFLOXACIN] | – | – | – | 0.125 (≈ 0.377 µM) | 16 (≈ 48.3 µM) | 0.5 (≈ 1.51 µM) | – | – | 0.125 (≈ 0.377 µM) | – | – | – | – | – | 2 (≈ 6.04 µM) | 1 (≈ 3.02 µM) | – | 0.5 (≈ 1.51 µM) | – | – | Activity (Staphylococcus aureus [34]): Active; Activity (Pseudomonas aeruginosa [35]): Active; Activity (Cell membrane [20]): inactive; Activity (Cell membrane [36]): inactive; Activity (Pseudomonas aeruginosa [37]): Active; Activity (Cell membrane [22]): inactive; Activity (Staphylococcus aureus [38]): inactive; Activity (Pseudomonas aeruginosa [39]): inactive; Activity (Pseudomonas aeruginosa [40]): Active; Activity (Pseudomonas aeruginosa [27]): Active; Activity (Pseudomonas aeruginosa [41]): Active; Activity (Pseudomonas aeruginosa [31]): inactive; Activity (Staphylococcus aureus [42]): Active; Activity (Cell membrane [43]): inactive; Activity (Staphylococcus aureus [44]): Active; Activity (Staphylococcus aureus [45]): Active

— ChEMBL document CHEMBL5506059, “Cyanomethylquinolones as a New Class of Potential Multitargeting Broad-Spectrum Antibacterial Agents” (J Med Chem, 2024)
